{"source": "patent US9896512B2", "about": "“Antitumor peptide derived from a complementarity determining region of a humanized monoclonal antibody to NAP12B transporter” (Recepta Biopharma S.A., priority 2010, dated 2018)", "key": {"[1]": {"test_system": "B16F10-Nex2 melanoma cells", "experiment": "Cell migration, wound healing assay", "assay_type": "cell-based, murine", "conditions": "for inhibition of cell migration (words): peptide 500 μM, 24 hours after wounding", "procedure": "(§1) For the migration studies, 5×10^5 or 10^6 cells were distributed on 6-well plates and let them to adhere for 2 hours at 37° C./5% CO2. The culture medium was changed and the peptide was added at 500 μM overnight. The cell monolayer was “wounded” with a P1000 tip and incubated for 24 hours. Images of untreated cells (control) and peptide treated cells were captured with a JENOPTIK camera. Cell numbers (nuclei) were determined using the Pixcavator software version 5.0.\nViable B16F10-Nex2 cells (5×105)/well were distributed on a 6-well culture plate and incubated overnight at 37° C. in a humidified chamber with 5% CO2. A P1000 tip was used for wounding the cell monolayer and the image was immediately captured (0 hour) using a camera (Jenoptik) with the software Progres 2.8. After 24 hours a new image of the same field was obtained and recorded (24 hours).\nViable B16F10-Nex2 cells (3×10^5)/well were distributed in a 12-well culture plate and incubated for 4 hours at 37° C. in a humidified chamber with 5% CO2. Fresh medium containing RB10 (SEQ ID NO: 9) at different concentrations was added to the wells and incubated again for 4 hours. The monolayer wounding was performed as described above in Example 12, and images obtained accordingly. After 24 hours a new image in the same field was obtained and recorded (24 hours). […] Magnification ×100."}, "[2]": {"test_system": "human colon cancer HCT cells", "experiment": "Cell migration, wound healing assay", "assay_type": "cell-based", "conditions": "peptide 500 μM, 24 hours", "procedure": "as §1"}, "[3]": {"test_system": "human ovary cancer OVCAR-3 cells", "experiment": "Cell migration, wound healing assay", "assay_type": "cell-based", "conditions": "peptide 500 μM, 24 hours", "procedure": "as §1"}, "[4]": {"test_system": "FibroRP primary human fibroblasts", "experiment": "Cell migration, wound healing assay", "assay_type": "cell-based", "conditions": "normal non-tumorigenic cells", "procedure": "as §1"}, "3T3 murine fibroblasts": {"test_system": "3T3 murine fibroblasts", "experiment": "Cell migration, wound healing assay", "assay_type": "cell-based", "conditions": "normal non-tumorigenic cells", "procedure": "as §1"}, "[5]": {"test_system": "human breast cancer SKBr-3 cells", "experiment": "Cell migration, wound healing assay", "assay_type": "cell-based", "conditions": "peptide 500 μM, 24 hours", "procedure": "as §1"}, "[6]": {"test_system": "T75 primary human fibroblasts", "experiment": "Cell migration, wound healing assay", "assay_type": "cell-based", "conditions": "normal non-tumorigenic cells", "procedure": "as §1"}, "[7]": {"test_system": "human melanoma A2058 cells", "experiment": "Cell migration, wound healing assay", "assay_type": "cell-based", "conditions": "peptide 500 μM, 24 hours", "procedure": "as §1"}, "B16F10-Nex2 cells [8]": {"test_system": "B16F10-Nex2 cells", "experiment": "Tumor cell invasion through Matrigel (Transwell)", "assay_type": "cell-based, murine", "design": "inhibition of cell invasion: dose or concentration left out as unconfirmed", "conditions": "24 hours", "procedure": "[…] As a chemoattractant, 10% FCS in RPMI was used in the transwell lower chamber. After 24 hours at 37° C. in humidified atmosphere with 5% CO2, non-invasive cells were excluded with a swab, and cells that crossed the membrane were fixed with methanol and stained with Giemsa. Cells were counted in each transwell membrane, and the numbers of invasive cells are expressed as percentages."}, "Solubility comparison": {"experiment": "Solubility comparison", "assay_type": "physicochemical", "excerpt": "(§2) Peptides have variable half lives in the plasma due to the proteolytic activity and the renal filtration, which are relevant aspects in the pharmacokinetics of drug candidates."}, "[9]": {"experiment": "Peptide degradation by human plasma (HPLC / mass spectrum)", "assay_type": "in vitro ADME", "procedure": "as §2\nTo analyze the peptide in HPLC and Mass Spectrum, an aliquot of 200 μL was transferred to a new Eppendorf tube and proteins were precipitated with 20 μL trifluoroacetic acid for 5 minutes at 4° C. After centrifugation for 10 minutes at 14,000 rpm, the supernatant was analyzed in an LC/ESI-MS (Waters).\nRegarding assays for determining time-lapse plasma degradation of RB9 peptide, peptide degradation by human plasma was monitored in HPLC and Mass spectra every 30 minutes as described above (FIG. 12). About 50% RB9 was cleaved after 2 hours of incubation at 37° C."}, "[10]": {"experiment": "In vivo peptide toxicity evaluation (histopathology)", "design": "species or system mice", "conditions": "300 μg via i.p., seven consecutive days", "procedure": "Mice were injected with RB9 (SEQ ID NO: 8) for seven consecutive days (300 μg via i.p.) and were sacrificed thereafter for histopathology. […] Also the peptides were not hemolytic as shown in FIG. 21 for RB10M3 (SEQ ID NO: 31)."}, "[11]": {"test_system": "melanoma B16F10-Nex2 cells", "experiment": "Alanine scanning series cell adhesion assay (MTT after trypsin-EDTA)", "assay_type": "cell-based, murine", "conditions": "1 mM peptide, 24 hours", "procedure": "The peptide RB10 (SEQ ID NO: 9) was engineered to replace each amino acid by alanine using Ala-scan methodology, and thus help evaluate the role of each amino acid on biological effect, specifically on the hyper-adherence observed with 1 mM peptide.\nFor this purpose, viable melanoma B16F10-Nex2 cells (1×10^4)/well were distributed on a 96-well culture plate and incubated for 4 hours. Fresh media containing 1 mM of the alanine-scanning series for RB10 was added and incubated for 24 hours. Treated cells were detached with 30 μl/well of trypsin-EDTA for five minutes at 37° C. and gently washed with PBS. Cells were incubated for 4 hours with 0.5 mg/mL of MTT [3-(4,5-Dimethylthiazol-2-yl)-2,5-diphenyltetrazolium bromide] in fresh media and the formazan crystals were solubilized adding 1 volume of a 10% SDS solution overnight. Intensity was measured using a plate reader at 570 nm. […] The 100% value for each peptide represented the treated cells that had not been trypsinized."}, "[12]": {"test_system": "human cervix cancer HeLa cells", "experiment": "Cell migration, wound healing assay", "assay_type": "cell-based", "conditions": "peptide 500 μM, 24 hours", "procedure": "as §1"}, "melanoma": {"test_system": "melanoma", "experiment": "Primary tumor development in a subcutaneous model", "assay_type": "in vivo", "conditions": "susceptible mice"}, "B16F10-Nex2 cells [13]": {"test_system": "B16F10-Nex2 cells", "experiment": "Superoxide anion production, dihydroethidium (DHE) assay", "assay_type": "cell-based, murine", "conditions": "1 mM, 18 hours", "procedure": "Based on the internal interactions of components, such as, actin and peroxides in tumor cells, even leading to apoptosis, the production of anion superoxide in tumor cells treated with RB10 was examined by dihydroethidium (DHE) assay.\nB16F10-Nex2 cells were treated with 1 mM RB10 for 18 hours or 5 mM H2O2 for 20 minutes. Treated cells with peptide or H2O2 and untreated cells were then incubated with DHE. Conversion of DHE to ethidium by oxidation was observed using fluorescence microscopy (Magnification 600×)."}, "B16F10-Nex2 cells [14]": {"test_system": "B16F10-Nex2 cells", "experiment": "Growth inhibition (cell number by image analysis)", "assay_type": "cell-based, murine", "procedure": "Viable B16F10-Nex2 cells (5×10^5)/well were distributed on a 6-well culture plate and incubated for 4 hours. Fresh medium containing 0 or 500 μM of RB10 ([…]) was added to the wells and incubated for 12 hours. Image was captured using a camera (Jenoptik) with the software Progres 2.8. The number of cells was detected using the software pixcavator (intelligent perception). After 12 hours with 0.5 mM of RB10, melanoma cells had fewer cells by 39% (FIG. 15); these cells were still able to proliferate but not to migrate. […] Magnification ×100."}}, "note": "“Also recorded” adds a separate entry of the source. No end group written: not given here.", "data": [{"compound": "C[C@@H]1NC(=O)[C@H](CCCNC(=N)N)NC(=O)[C@H](C)NC(=O)[C@H]([C@@H](C)O)NC(=O)[C@H](CCC(=O)O)NC(=O)CNC(=O)[C@H](CCCNC(=N)N)NC(=O)[C@H](C)NC(=O)[C@@H](N)CSSC[C@@H](C(N)=O)NC(=O)CNC(=O)[C@H](CCC(N)=O)NC(=O)CNC(=O)[C@H](Cc2c[nH]c3ccccc23)NC(=O)[C@H](Cc2ccc(O)cc2)NC(=O)[C@H](C)NC(=O)[C@H](Cc2ccccc2)NC(=O)[C@H]([C@@H](C)O)NC1=O", "note": "[RB9, CARGETARATFAYWGQGC-NH2]", "values": [{"measurement": "inhibition of cell migration (words)", "setting": "[1]", "result": "Total inhibition; also recorded: complete inhibition"}, {"measurement": "inhibition of cell migration", "setting": "[2]", "result": "completely inhibited; also recorded: partial inhibition"}, {"measurement": "inhibition of cell migration", "setting": "[3]", "result": "half inhibited; also recorded: partial inhibition"}, {"measurement": "inhibition of cell migration", "setting": "[4]", "result": "did not affect; also recorded: non-inhibition"}, {"measurement": "inhibition of cell migration", "setting": "3T3 murine fibroblasts", "result": "did not affect; also recorded: non-inhibition"}, {"measurement": "inhibition of cell migration", "setting": "[5]", "result": "completely inhibited; also recorded: complete inhibition"}, {"measurement": "inhibition of cell migration", "setting": "[6]", "result": "did not affect; also recorded: non-inhibition"}, {"measurement": "inhibition of cell migration", "setting": "[7]", "result": "completely inhibited; also recorded: complete inhibition"}, {"measurement": "inhibition of cell invasion", "setting": "B16F10-Nex2 cells [8]", "result": 60, "unit": "%"}, {"measurement": "inhibition of cell invasion through Matrigel, dose dependence", "setting": "B16F10-Nex2 cells [8]; 10% FCS chemoattractant", "result": "dose-dependent inhibition"}, {"measurement": "solubility (comparison)", "setting": "Solubility comparison", "result": "more soluble than RB10"}, {"measurement": "degradation in human plasma at 24 hours", "setting": "[9]; 24 hours, 37° C.", "result": "whole peptide was degraded; also recorded: total degradation"}, {"measurement": "peptide cleaved / degraded in human plasma", "setting": "[9]; after 2 hours of incubation at 37° C.", "result": 50, "unit": "%"}, {"measurement": "metabolised at 2 h, 1.67 mg/mL", "setting": "[9]; human, human plasma, after 2 hours of incubation at 37° C., read-out: peptide cleaved / degraded in human plasma", "result": "~50", "unit": "%"}, {"measurement": "toxicity, morphological alterations in liver, lung, heart, kidney and spleen", "setting": "[10]", "result": "No signs of toxicity or morphological alterations"}]}, {"compound": "CARGETARATFAYWGQG-NH2 [RB10, CARGETARATFAYWGQG-NH2]", "values": [{"measurement": "trypsin/EDTA-resistant cell adherence", "setting": "[11]", "result": "high trypsin/EDTA-resistant cell adherence"}, {"measurement": "inhibition of cell migration", "setting": "[1]; 30 μM, 24 hours", "result": "more than 30%"}, {"measurement": "inhibition of cell migration", "setting": "[1]; 500 μM, 24 hours", "result": 100, "unit": "%"}, {"measurement": "migration inhibition, dose dependence", "setting": "[1]; different concentrations, 24 hours", "result": "dose-dependent inhibition"}, {"measurement": "inhibition of cell migration (words)", "setting": "[1]", "result": "Total inhibition; also recorded: inhibited; also recorded: complete inhibition"}, {"measurement": "inhibition of cell migration", "setting": "[12]", "result": "complete or almost complete inhibition"}, {"measurement": "protection against development of a primary tumor", "setting": "melanoma", "result": "not against the development of a primary tumor"}, {"measurement": "reaction with dihydroethidium (anion superoxide production)", "setting": "B16F10-Nex2 cells [13]", "result": "positive"}, {"measurement": "fewer cells than control", "setting": "B16F10-Nex2 cells [14]; 0.5 mM, 12 hours", "result": 39, "unit": "%"}, {"measurement": "inhibition of growth", "setting": "B16F10-Nex2 cells [14]; 12 hours incubation", "result": "partial inhibition"}]}]}
